Test results: US4389412A, “Substituted cyclopropanecarboxylic acid esters and pesticidal compositions containing the same as active ingredient” (priority 1979, dated 1983)
≈ marks a conversion by molar mass, not a printed value. Where two headings read alike, the source gives them in different places.

Key:
[1] = system: tobacco cutworms (Prodenia litura Fabricius); assay: Mortality test with tobacco cutworms by topical application method; type: in vivo; settings: 24 h
Description: Mortality test with tobacco cutworms (Prodenia litura Fabricius) by topical application method
Using a microsyringe, 0.5 μl of the above solution was dripped onto the thoracic adbominal region of each of 3-instar tobacco cutworm (Prodenia litura Fabricius) larvae. […] The test larvae were used in groups of 20 individuals each.

[2] = Fish toxicity test with killifish; type: in vivo, Orizias latipes; settings: water, killifish, 25±1° C., read-out: TLm (48 hrs.)
Outline: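 Test compound dispensed from acetone solution into water at set concentrations; ten aerated-water killifish (~0.25 g, ~2.5 cm) held at 25±1° C. Deaths scored after 48 hours; TLm (median tolerance limit, ppm) determined.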

[3] = Fish toxicity test with carp; type: in vivo, Cyprinus carpio L; settings: carp, water
Outline: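 Compound in acetone with Tween-20 dispersed in 50 L aerated water at a set concentration; five carp (about 6 g, 6 cm) exposed at 21±1° C. Deaths checked after 48 h, and TLm (median tolerance limit, ppm) determined.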

[4] = system: brown planthoppers (Nilaparvata lugens Stal); assay: Utility Example-1: LC50 on adult brown planthoppers on dipped rice plants; type: in vivo; settings: Nilaparvata lugens, 24 h, 25° C., read-out: Pesticidal activity LC50
Outline: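 Rice plants 4 weeks from sowing were dipped in water-diluted 1% emulsifiable concentrate at set concentrations and air-dried. Thirty adult N. lugens were caged on each pot, held at 25 °C.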

[5] = system: green rice leafhoppers (Nephotettix cincticeps Uhler); assay: Utility Example-2: spray on rice plants, green rice leafhoppers; type: in vivo; settings: 7 ml/pot, 24 hours
Description: A 30% emulsifiable concentrate of each of the cis- and trans-isomers and a 50:50 mixture of the cis- and trans-isomers of Compound (1) and Compound (2) as prepared by the procedure described in Formulation Example-1 was diluted with water to a concentration of 80 ppm as active compound. Rice plants 4 weeks after sowing in pots (each pot 6 cm in diameter, 7 seedlings) were sprayed with the above solution at the rate of 7 ml/pot and, after drying in the air, each pot was covered with a wire-mesh cage. Then, 20 female adult green rice leafhoppers (Nephotettix cincticeps Uhler) were released into the cage. The caged pots were kept in a constant-temperature chamber at 25° C. […] In all groups, the mortality values were not less than 90%.

[6] = system: small brown planthoppers (Laodelphax striatellus Fallen); assay: Utility Example-3: spray on rice plants, small brown planthoppers; type: in vivo; settings: 7 ml/pot, 24 hours
Description: A 30% emulsifiable concentrate of each of the cis- and trans-isomers and a 50:50 mixture of the cis- and trans-isomers of Compound (1) and of Compound (2) as prepared by the procedure described in Formulation Example-1 was diluted with water to a concentration of 80 ppm as active compound. Rice plants 4 weeks after sowing in pots (each pot 6 cm in diameter, 7 seedlings) were sprayed with the above diluted solution at the rate of 7 ml/pot and, after drying in the air, each pot was covered with a wire-mesh cage. Then, 30 adult small brown planthoppers (Laodelphax striatellus Fallen) were released into the cage. The pots were kept in a constant-temperature chamber at 25° C. […] In all groups, the mortality was not less than 90%.

[7] = system: green rice leafhoppers (Nephotettix cincticeps); assay: Utility Example-6: 0.5% dust on rice seedlings, green rice leafhoppers; type: in vivo; settings: 1 kg per 10 ares, 24 hours, resistant to organophosphorus and carbamate pesticides
Text: A 0.5% dust preparation of each of the cis- and trans-isomers and a 50:50 mixture of the cis- and trans-isomers of Compound (1) and of Compound (2) as prepared by the procedure described in Formulation Example-4 was applied to rice seedlings by means of a bell-jar duster at the rate of 1 kg per 10 ares. Then, 30 green rice leafhoppers (Nephotettix cincticeps) resistant to organophosphorus and carbamate pesticides were released. […] In all cases, the mortality was not less than 90%.

fish = assay: Fish toxicity safety factor (TLm divided by maximum concentration in cover water); set-up: species or system carp
Outline: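 Calculated index: carp TLm (ppm) divided by the maximum compound concentration expected in paddy cover water. That concentration assumes 100 l of solution at the pest LC50 applied per 10 ares onto 5 cm deep cover water, all of it entering the water.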

[8] = 48 hrs., 21±1° C., read-out: TLm, Carp (48 hrs.)
[9] = read-out: Pesticidal effect, tobacco cutworm

Row | SMILES | mortality at 0.0001 mg [1] | LC50 at 48 h [2] | LC50 at 48 h [3, 8] | LC50 [4] | mortality at 80 ppm [5] | mortality at 80 ppm [6] | mortality [7] | mortality at 0.0001 mg [1, 9] | LC50 at 48 h ([3]; Table 12 and text of Utility Example-1, read-out: Toxicity to fish TLm) | concentration which kills 50% of pests as fraction of concentration which kills 50% of fish (fish) | Fish toxicity safety factor (fish; TLm / maximum concentration in cover water at LC50 application (100 l per 10 ares, 5 cm depth))
1 | C#CC(OC(=O)[C@@H]1[C@H](C=C(Cl)Cl)C1(C)C)c1cccc(Oc2ccc(Cl)cc2)c1 (relative stereo) [Compound (2) cis-] | 100% | > 10 µg/mL | 0.83 µg/mL (≈ 1.85 µM) | 200 µg/mL (≈ 445 µM) | ≥ 90% | ≥ 90% | not less than 90% |  |  |  | 
2 | CC1(C)C(C=C(Cl)Cl)C1C(=O)OCc1cccc(Oc2ccccc2)c1 (stereo not drawn) [Compound (B), Permethrin] | 85% | 0.04 µg/mL (≈ 0.102 µM) | 0.015 µg/mL (≈ 0.0383 µM) | 700 µg/mL (≈ 1790 µM) |  |  |  | 85% |  |  | 
3 | C#CC(OC(=O)[C@@H]1[C@@H](C=C(Cl)Cl)C1(C)C)c1cccc(Oc2ccc(Cl)cc2)c1 (relative stereo) [Compound (2) trans-] | 100% | > 10 µg/mL | > 10 µg/mL | 180 µg/mL (≈ 400 µM) | ≥ 90% | ≥ 90% | not less than 90% |  | > 10 µg/mL | less than 1/28 | 
4 | CC1(C)[C@@H](C=C(Cl)Cl)[C@@H]1C(=O)OCc1cccc(Oc2ccc(Cl)cc2)c1 (relative stereo) [Compound (1) trans-, 3-(4-chlorophenoxy)benzyl trans-2,2-dimethyl-3-(2,2-dichlorovinyl)cyclopropanecarboxylate] | 100% | > 10 µg/mL | 4.5 µg/mL (≈ 10.6 µM) | 650 µg/mL (≈ 1530 µM) | ≥ 90% | ≥ 90% | not less than 90% |  |  |  | 
5 | C#CC(OC(=O)C1C(C=C(Cl)Cl)C1(C)C)c1cccc(Oc2ccc(Cl)cc2)c1 (stereo not drawn) [Compound (2) cis-/trans- = 50:50, 3-(4-chlorophenoxy)-α-ethynylbenzyl 2,2-dimethyl-3-(2,2-dichlorovinyl)cyclopropanecarboxylate] | 100% | > 10 µg/mL |  | 190 µg/mL (≈ 422 µM) | ≥ 90% | ≥ 90% | not less than 90% | 100% |  |  | 7.4
